In patent US8986701B2, “Enzyme prodrug cancer therapy selectively targeted to tumor vasculature and methods of production and use thereof” (The Board of Regents of the University of Oklahoma, priority 2003, dated 2015):

Tests used:
[1] = test system: MDA-MB-231 breast cancer cells; assay: In vitro enzyme prodrug cytotoxicity (Alamar Blue), MDA-MB-231; assay type: cell-based, human; settings: 500 μM L-methionine
Protocol: (§1) In Vitro Enyzme Prodrug Cytotoxicty to Cells: The experiment lasted 3 days, using the same cells for each of the days (day 0, 1, 2, and 3). Cells were grown and plated in 24-well plates with respective growth media using the same procedure as for the FP binding assay (see above). […] On day 0, a saturating concentration of FP was diluted in medium was added and incubated for 2 hours at 37° C. The plates were washed, and medium containing SeMet varying from 0 to 500 μM was added. The Alamar Blue assay was performed on all wells on day 0. […] The solution was transferred to an opaque 96-well plate, and the fluorescence was read at 590 nm using excitation at 530 nm. The blank consisted of wells containing only medium (no cells). After the fluorescence reading, the plates were washed, replaced with fresh medium, and then placed in incubator. The readings were taken every 24 hours for the duration of the experiment. […] The ability of the enzyme prodrug system to eliminate human endothelial cells and breast cancer cells was evaluated using cells grown in vitro and plated on 24-well plates. […] Each of the cell lines in question metabolized the Alamar Blue to produce a fluorescence that was measured to quantify total cell viability. For each day, the fluorescence data from the Alamar Blue assay was expressed as a percentage of the fluorescence for the cells with no FP and 0 μM SeMet (control). […]

[2] = test system: HAAE-1 endothelial cells; assay: In vitro enzyme prodrug cytotoxicity (Alamar Blue), endothelial cells; assay type: cell-based, human; settings: with saturating FP; 10 and 100 μM SeMet; days 2 and 3; 500 μM L-methionine
Protocol: as §1

[3] = test system: MCF-7 breast cancer cells; assay: In vitro enzyme prodrug cytotoxicity (Alamar Blue), MCF-7; assay type: cell-based, human
Protocol: as §1

[4] = test system: endothelial cells; settings: van Heerde et al., 1994a and b; read-out: Kd, literature values of annexin V binding alone to endothelial cells; cited from earlier work
[5] = test system: human brain tumor xenografts; settings: cited from earlier work
[6] = L-methioninase from P. putida; Esaki and Soda 1987; cited from earlier work
[7] = Storage stability of L-methioninase activity in lyophilized form; assay type: physicochemical; settings: lyophilized form at −80° C.
[8] = L-methioninase enzyme activity with L-methionine as substrate; assay type: biochemical
Protocol: Protein Content and Enzymatic Activity Determination: The Bradford assay from Bio-Rad (Hercules, Calif.) was used for all protein determinations throughout the purification using bovine serum albumin (BSA) as the standard. Samples were analyzed by denaturing gel electrophoresis using the SDS-PAGE method with Coomassie blue staining (Laemmli, 1970).

[9] = test system: MCF-7 cells; assay: Binding stability assay, MCF-7; assay type: cell-based, human
Protocol: (§2) Binding Stability Assay: To assess how long the FP remains bound to the surface of the endothelial cells, a modified binding assay was used. Cells on 24-well plates were first incubated for 2 hours at 37° C. in a saturating concentration of biotinylated FP (50 nM) in complete growth medium with 2 mM Ca^2+. Then, the cells were fixed either at day 0, 1, 2 or 3 with 0.25% glutaraldehyde in binding buffer. Excess aldehyde groups were quenched by incubation in a 50 mM NH4Cl in binding buffer. The binding of FP was then quantitated using the same procedure used in the FP binding assay (see above).
(§3) Binding Stability: To assess how long the FP remains bound to the surface of the endothelial cells, a modified binding assay was used. Cells on 24-well plates were first incubated for 2 hours at 37° C. in a saturating concentration of biotinylated FP (50 nM) in complete growth medium with 2 mM Ca^2+. […] The binding of FP was then quantified using the same procedure used in the equilibrium FP binding assay. […] For each cell line, the slope by linear regression of the absorbance/RFU versus time data was obtained, with results as follows: 3.07×10^−5 per day for the endothelial cells (HAAE-1), 4.63×10^−5 per day for the MCF-7 cells, and 5.38×10^−5 per day for the MDA-MB-231 cells. Thus, the rate of change of absorbance/RFU was the lowest for the endothelial cells.

[10] = test system: MDA-MB-231 cells; assay: Binding stability assay, MDA-MB-231; assay type: cell-based, human
Protocol: as §2, §3

[11] = test system: PS exposed on MCF-7 breast cancer cells; assay: Fusion protein equilibrium binding assay, MCF-7; design: species or system human; settings: specific binding, biotin-labeled FP, no H2O2, read-out: dissociation constant (Kd)
Protocol: (§4) Fusion Protein Binding Assay: Endothelial cells were grown to 70-80% confluence in T-75 flasks. Cells were transferred to 24-well culture plates (5×10^4 cells/well) and grown to 80-85% confluence. Cells were fixed to the plate using 0.25% glutaraldehyde in binding buffer (PBS with 2 mM Ca^2+). Excess aldehyde groups were quenched using 50 mM NH4Cl in binding buffer. Varying concentrations of biotinylated FP were diluted in binding buffer containing 0.5% BSA and incubated at 37° C. for 2 hours. After washing with binding buffer with 0.5% BSA, streptavidin-HRP was added at 2 μg/ml and incubated at room temperature for 1 hour. Following washing with binding buffer, HRP was measured by adding the chromogenic substrate O-phenylenediamine (0.4 mg/ml) and hydrogen peroxide (0.012%) in phosphate-citrate buffer. After 30 minutes at room temperature in the dark, the solution was transferred to a transparent 96-well plate, and the absorbance was read at 450 nm on a microtiter plate reader. […] To determine non-specific binding, the same procedure was performed with no Ca^2+ and 5 mM EDTA in the binding buffer. […]
(§5) Binding of Fusion Protein: The ability of the Meth-AnnV FP to bind to human endothelial cells and breast cancer cells with PS exposed on the cell surface was evaluated by equilibrium binding experiments in which increasing concentrations of biotin-labeled FP were used. […]

[12] = test system: PS exposed on MDA-MB-231 breast cancer cells; assay: Fusion protein equilibrium binding assay, MDA-MB-231; design: species or system human; settings: specific binding, biotin-labeled FP, no H2O2, read-out: dissociation constant (Kd)
Protocol: as §4, §5

[13] = test system: HAAE-1 endothelial cells; assay: Binding stability assay, endothelial cells; assay type: cell-based, human
Protocol: as §2, §3

[14] = test system: PS exposed on HAAE-1 aorta endothelial cells; assay: Fusion protein equilibrium binding assay, endothelial cells; design: species or system human; settings: specific binding (total minus non-specific without Ca2+), biotin-labeled FP, no H2O2, read-out: dissociation constant (Kd)
Protocol: as §4, §5

[15] = period of the experiment 3 days
[16] = 50 nM biotinylated FP, days 0-3, 500 μM L-methionine

## C[Se]CC[C@H](N)C(=O)O [SeMet, selenomethionine]
[1]; with saturating FP, 10 and 500 μM SeMet, days 1, 2 and 3
  cell killing (cell viability, Alamar Blue) vs same SeMet without FP: significant killing
[2]
  cell killing (cell viability, Alamar Blue) vs same SeMet without FP: Significant cell killing
[3]; no FP, 500 μM SeMet, day 3, p<0.05
  cell viability vs control, SeMet by itself: significantly lower
[3]; with saturating FP, day 2 with 500 μM SeMet, day 3 with 100 and 500 μM SeMet, 2000 μM L-methionine
  cell killing (cell viability, Alamar Blue) vs same SeMet without FP: significant cell killing

## annexin V: Ca2+-dependent anionic phospholipid binding protein; literature comparator for binding
[4]
  Kd: 2.7 to 15.5 nM

## L-methionine-α-deamino-γ-mercaptomethane-lyase [L-methioninase]
[5]; after a 10-day period, same combined treatment
  tumor regression, share of animals: one-third
[5]; within four days, 44 mg/kg per day i.p. with homocystine and diet restricted in methionine, homocysteine, choline
  tumor stasis, share of treated animals: 100%
[6]
  relative reactivity for DL-selenomethionine substrate versus L-methionine substrate: 2.8 times

## FP: Fusion protein of Pseudomonas putida L-methioninase linked by a flexible linker to human annexin V, SEQ ID NO:2
[1]; no SeMet
  cell viability when FP added, no SeMet present: significant decrease in cell viability
[7]
  L-methioninase activity on storage: remained relatively constant
[8]; lyophilized FP
  methioninase specific activity: 1.0 U/mg of protein
[8]; purification step: After lyophilized
  Specific activity: 1.04 U/mg
[9]; 50 nM biotinylated FP, days 0-3, 2000 μM L-methionine
  slope by linear regression of absorbance/RFU versus time: 4.63×10^−5 per day
[9]; [15]
  duration FP stays bound to the cells: at least 3 days
[10]; [16]
  slope by linear regression of absorbance/RFU versus time: 5.38×10^−5 per day
[10]; [15]
  duration FP stays bound to the cells: at least 3 days
[11]
  Kd: 1.9 ± 1.2 nM
[12]
  Kd: 2.2 ± 1.2 nM
[13]; [16]
  slope by linear regression of absorbance/RFU versus time: 3.07×10^−5 per day
[13]; [15]
  duration FP stays bound to the cells: at least 3 days
[14]
  Kd: 1.7 ± 0.6 nM
